Data set [1] has as its system Plasmodium yoelii. As to the kind of experiment: Antimalarial activity against erythrocytic Plasmodium yoelii MRA-428 infected in CF1 mouse assessed as reduction in parasitemia at 80 mg/kg, po once daily for 4 days measured on day 5. It counts as functional. Details: scale not given: the % may be the effect or the level left. Conditions: time 4 day.
The subject of data set [2] is Plasmodium berghei. As to the kind of experiment: Anti-malarial activity against Luciferase-expressing Plasmodium berghei sporozoites inoculated in po dosed Albino C57BL/6 mouse malaria model assessed as elimination of parasites in blood by measuring bioluminescence signal measured after 72 hrs. The class given is functional, organism-based.
The subject of data set [3] is Plasmodium yoelii. The data set is described as follows: Antimalarial activity against erythrocytic Plasmodium yoelii MRA-428 infected in CF1 mouse assessed as cured mouse at 25 mg/kg, po once daily for 4 days measured on day 28 day. It counts as functional, organism-based. The following applies: time 4.0 day.
Data set [4] concerns Plasmodium yoelii. As to the kind of experiment: Antimalarial activity against erythrocytic Plasmodium yoelii MRA-428 infected in CF1 mouse assessed as reduction in parasitemia at 10 mg/kg, po once daily for 4 days measured on day 5. The class given is functional. More on the design: scale not given: the % may be the effect or the level left. Conditions: time 4 day.
The subject of data set [5] is Plasmodium yoelii. The data set is described as follows: Antimalarial activity against erythrocytic Plasmodium yoelii MRA-428 infected in CF1 mouse assessed as reduction in parasitemia at 50 mg/kg, po once daily for 4 days measured on day 5. It counts as functional. Details: scale not given: the % may be the effect or the level left. Conditions: time 4 day.
Data set [6] is described as follows: Metabolic stability in mouse liver microsomes assessed as half life measured up to 60 mins by LC/MS analysis. The class given is ADME, Microsome.
Data set [7] has as its system Plasmodium falciparum. The data set is described as follows: microbe, parasite or virus in culture. The following applies: Dd2, 72 h.
Description: Antiplasmodial activity against asexual blood-stage Plasmodium falciparum Dd2 using 2% haematocrit and 0.2% parasitemia assessed as reduction in fluorescence measured after 72 hrs by Malaria SYBR Green I-based Fluorescence (MSF) assay
Data set [8] can be described thus: (§1) Cytotoxicity against human HepG2 cells assessed as cell viability measured after 48 hrs by MTT assay. The class given is toxicity, cell-based. The following applies: human, HepG2 cells. (In general: Formazan colour is commonly taken as a measure of viable cells.)
For data set [9], the system named is Plasmodium yoelii. As to the kind of experiment: Antimalarial activity against erythrocytic Plasmodium yoelii MRA-428 infected in CF1 mouse assessed as cured mouse at 50 mg/kg, po once daily for 4 days measured on day 28 day. The class given is functional, organism-based. The following applies: time 4.0 day.
Data set [10] relates to Plasmodium yoelii. The data set is described as follows: Antimalarial activity against erythrocytic Plasmodium yoelii MRA-428 infected in CF1 mouse assessed as cured mouse at 80 mg/kg, po once daily for 4 days measured on day 28 day. It counts as functional, organism-based. Conditions: time 4.0 day.
A short description of data set [11]: Metabolic stability in human liver microsomes assessed as half life measured up to 60 mins by LC/MS analysis. It counts as ADME, Microsome. On the technique in general: Liver microsomes are vesicles of endoplasmic reticulum, rich in cytochrome P450 enzymes.
In data set [12] the test system is Plasmodium berghei. As to the kind of experiment: Anti-malarial activity against Luciferase-expressing Plasmodium berghei sporozoites inoculated in po dosed Albino C57BL/6 mouse malaria model assessed as elimination of parasites in liver by measuring bioluminescence signal measured after 48 hrs. It counts as functional, organism-based.
Data set [13] concerns Plasmodium falciparum. The data set is described as follows: microbe, parasite or virus in culture. The following applies: D6, 72 h.
Description: Antiplasmodial activity against asexual blood-stage Plasmodium falciparum D6 using 2% haematocrit and 0.2% parasitemia assessed as reduction in fluorescence measured after 72 hrs by Malaria SYBR Green I-based Fluorescence (MSF) assay
Data set [14] in a line: in vitro. The following applies: human.
Description: Selectivity index, ratio of IC50 for cytotoxicity against human HepG2 cells to IC50 for antiplasmodial activity against asexual blood-stage Plasmodium falciparum D6
For data set [15], the system named is Plasmodium yoelii. As to the kind of experiment: Antimalarial activity against erythrocytic Plasmodium yoelii MRA-428 infected in CF1 mouse assessed as reduction in parasitemia at 25 mg/kg, po once daily for 4 days measured on day 5. The class given is functional. More on the design: scale not given: the % may be the effect or the level left. Conditions: time 4 day.

Data set [16] deals with Plasmodium falciparum. As to the kind of experiment: Antiplasmodial activity against asexual blood-stage Plasmodium falciparum Tm90-C2B using 2% haematocrit and 0.2% parasitemia assessed as reduction in fluorescence measured after 72 hrs by Malaria SYBR Green I-based Fluorescence (MSF) assay. The class given is functional, organism-based.
In data set [17] the test system is MDR1 (human). As to the kind of experiment: Efflux ratio, ratio of apparent permeability across apical to basolateral side over basolateral to apical side in MDCK transfected with human MDR1 cells incubated for 1 hr by LC-MS analysis. The following applies: dog.
A short description of data set [18]: Solubility of the compound in potassium phosphate buffer at pH 7.4 by UV-vis spectroscopy.
Data set [19] can be described thus: (§2) Apparent permeability across apical to basolateral side in MDCK transfected with human MDR1 cells incubated for 1 hr by LC-MS analysis. The following applies: dog, mdck, 1 h.
Data set [20] is described as follows: in vitro. The following applies: human, liver microsomes.
Data set [21] in a line: in vitro. The following applies: mouse, liver microsomes.
The test system of data set [22] is Plasmodium yoelii. As to the kind of experiment: Antimalarial activity against erythrocytic Plasmodium yoelii MRA-428 infected in CF1 mouse assessed as cured mouse at 10 mg/kg, po once daily for 4 days measured on day 28 day. It counts as functional, organism-based. Conditions: time 4.0 day.
Data set [23] concerns MDR1 (human). The description is as §2. Conditions: dog, MDCK-MDR1.
The test system of the next data set is HepG2. Described as §1. Conditions: hepg2. The class given is toxicity, cell-based.
Data set [24] deals with MDR1 (human). As to the kind of experiment: (§3) Apparent permeability across basolateral to apical side in MDCK transfected with human MDR1 cells incubated for 1 hr by LC-MS analysis. The following applies: dog, MDCK-MDR1.
Data set [25] concerns Plasmodium falciparum. The data set is described as follows: Anti-plasmodial activity against Plasmodium falciparum 3D7 infected in erythrocytes assessed as parasite clearance time at 0.27 uM measured 22 to 28 days relative to initial population. It counts as functional. Conditions: time 22-28 day.
For data set [26], the system named is Plasmodium falciparum. As to the kind of experiment: Anti-plasmodial activity against Plasmodium falciparum 3D7 infected in erythrocytes assessed as Lag phase (time to observe the maximal killing effect of the drug) at 0.27 uM. It counts as functional.
In data set [27] the test system is Plasmodium falciparum. As to the kind of experiment: Anti-plasmodial activity against Plasmodium falciparum 3D7 infected in erythrocytes assessed as parasite reduction ratio at 0.27 uM measured 22 to 28 days. It counts as functional. Conditions: time 22-28 day.
Data set [28] in a line: as §3. Conditions: dog, mdck, 1 h.

≈ marks a conversion by molar mass, not a printed value. Calls of active or inactive are those of the source.

Turning to `CCC1=C(CC)/C(=C/NC23CC4CC(CC(C4)C2)C3)N=C1c1ccc[nH]1`, the Activity in the data set on Plasmodium yoelii [1] is 100%; in the data set with Plasmodium berghei [2], “Dose-dependent-effect”; in the data set on Plasmodium yoelii [3] it was “Active; Three Mouse Cured Out Of Four”; in the data set with Plasmodium yoelii [4], 82.5%; in the data set with Plasmodium yoelii [5] it was 100%; in the data set on Plasmodium yoelii [9], “Active; Three Mouse Cured Out Of Four”. Also, the Activity result in the data set on Plasmodium yoelii [10] is “Active; Four Mouse Cured Out Of Four”; in the data set on Plasmodium berghei [12], “Dose-dependent-effect”; with Plasmodium yoelii [15], 100%. Also, the half-life in [6] was 16 min; in data set [11], over 60 min. For the same compound, the IC50 in the data set on Plasmodium falciparum [7] was determined as 0.00101 µM; in the data set with Plasmodium falciparum [13] it was 0.0016 µM. For the same compound, the IC50 at 48 h in data set [8] was determined as 3.9 µM. Moreover, the selectivity ratio in “in vitro [14]” came to 2440.
Turning to `CCC1=C(CC)/C(=C/NC23CC4CC(CC(C4)C2)C3)N=C1c1cc2ccccc2[nH]1`, the IC50 in the data set with Plasmodium falciparum [16] turned out to be 0.41 µM; in the data set on Plasmodium falciparum [7], 0.0593 µM; in the data set on Plasmodium falciparum [13], 0.0702 µM. Further, the efflux ratio at 1 h in the data set on MDR1 (human) [17] was 0.14. Further, the half-life in data set [6] was 49.1 min; in data set [11], over 60 min. This compound came in with a solubility in data set [18] (potassium phosphate buffer) of 11.5 µM (≈ 4.6 µg/mL). Besides, in [19], the apparent permeability (Papp) came to 0.58 ×10⁻⁶ cm/s. Further, the intrinsic metabolic clearance (microsomal CLint) at 1 h is 4.02 µL/min/mg in “in vitro [20]” and 28.3 µL/min/mg in the data set “in vitro [21]”. In data set [8], the IC50 at 48 h was determined as 7.01 µM. In addition, the selectivity ratio in the data set “in vitro [14]” was 99.8.
In the case of `CCC1=C(C)/C(=C/NC2CCCCCC2)N=C1c1ccc[nH]1`, the Activity with Plasmodium yoelii [1] was 100%; with Plasmodium yoelii [3], “Active; Four Mouse Cured Out Of Four”; in the data set with Plasmodium yoelii [4], 100%; in the data set on Plasmodium yoelii [5] it was 100%; in the data set on Plasmodium yoelii [22], “Not active; None Of The Mouse Cured Out Of Four Tested”; in the data set with Plasmodium yoelii [9], “Active; Four Mouse Cured Out Of Four”. The Activity entry in the data set with Plasmodium yoelii [10] is “Active; Two Mouse Cured Out Of Four”; in the data set with Plasmodium yoelii [15], 100%. In addition, the result in the data set on Plasmodium berghei [2] and in the data set on Plasmodium berghei [12] was inactive. The values for the IC50 in the data set with Plasmodium falciparum [16], in the data set on Plasmodium falciparum [7] and in the data set on Plasmodium falciparum [13] were 0.0376 µM, 0.0555 µM and 0.0622 µM, respectively. Besides, the half-life in data set [6] stood at 10.1 min; in data set [11] it was 17.7 min. Further, the IC50 at 48 h in data set [8] amounted to 19.2 µM. Besides, the selectivity ratio in the data set “in vitro [14]” is 309.
For the compound `CCC1=C(CC)/C(=C/NC23C[C@H]4C[C@@H](C2)C[C@@H](C3)C4)N=C1c1ccc(C)[nH]1`, the Activity result with Plasmodium yoelii [3] is “Not active; None Of The Mouse Cured Out Of Four Tested”; in the data set with Plasmodium yoelii [4], 100%; with Plasmodium yoelii [5], 100%; in the data set on Plasmodium yoelii [22], “Not active; None Of The Mouse Cured Out Of Four Tested”; with Plasmodium yoelii [9], “Active; Two Mouse Cured Out Of Four”; in the data set with Plasmodium yoelii [15] it was 100%. For the same compound, the IC50 with Plasmodium falciparum [16] was 0.00101 µM; in the data set on Plasmodium falciparum [7], 0.000823 µM; in the data set with HepG2 it was 2.45 µM; in the data set on Plasmodium falciparum [13], 0.000934 µM. Also, the efflux ratio at 1 h in the data set with MDR1 (human) [17] came out at 0.24. Also, the half-life in [6] was over 60 min; in data set [11], 34.9 min. In data set [18] (buffer), this compound gave a solubility of 10.9 µM (≈ 3.96 µg/mL). Moreover, the Papp A→B at 1 h with MDR1 (human) [23] amounted to 0.027 ×10⁻⁶ cm/s. Besides, the microsomal CLint at 1 h in “in vitro [20]” was found to be 39.7 µL/min/mg; in the data set “in vitro [21]”, 13.8 µL/min/mg. Besides, the apparent permeability from basolateral to apical (Papp B→A) at 1 h with MDR1 (human) [24] worked out at 0.006 ×10⁻⁶ cm/s. Also, the selectivity ratio in the data set “in vitro [14]” amounted to 2620.
Consider `CCc1nc(N)nc(N)c1-c1ccc(Cl)cc1` [PYRIMETHAMINE], for which the T99.9% in the data set with Plasmodium falciparum [25] is 54 h. The Time in the data set on Plasmodium falciparum [26] turned out to be 24 h. The “log(activity)” value in the data set on Plasmodium falciparum [27] is recorded as 3.49.
As to `CCC1=C(CC)/C(=C/NC2CCCCC2)N=C1c1ccc(Cc2ccc(OC)cc2)[nH]1`, the 50% inhibitory concentration (IC50) with Plasmodium falciparum [16] is 0.0116 µM; in the data set on Plasmodium falciparum [7], 0.00725 µM; in the data set on HepG2, 7.81 µM; in the data set on Plasmodium falciparum [13] it was 0.00926 µM. In addition, the Activity in the data set with Plasmodium yoelii [4] and in the data set on Plasmodium yoelii [15] was 0% throughout. Besides, the half-life in [6] and in data set [11] was over 60 min in each case. The same compound returned a solubility in data set [18] (buffer) of 14.4 µM (≈ 6.01 µg/mL). The apparent permeability coefficient (Papp) in data set [19] worked out at 0.15 ×10⁻⁶ cm/s; in data set [28], 0.43 ×10⁻⁶ cm/s. For the same compound, the microsomal CLint at 1 h in “in vitro [20]” turned out to be 3.37 µL/min/mg; in the data set “in vitro [21]”, 1.94 µL/min/mg.

Usually half-life stands for the time needed for the level to fall by half in the phase considered. Usually IC50 stands for the concentration that inhibits the measured activity by half. As a reminder, the efflux ratio is the permeability from basolateral to apical divided by that in the opposite direction, in the common usage. As usually defined, the solubility is the dissolved amount per volume that the medium holds. Broadly, the Papp is a coefficient for how fast a substance crosses the barrier. A word on the microsomal CLint: it is the rate of metabolic loss divided by the concentration. One may read the Papp A→B as the apparent permeability from the apical to the basolateral side of a cell layer. The Papp B→A is the apparent permeability from the basolateral to the apical side of a cell layer.

The values are drawn from ChEMBL document CHEMBL6178021, “Optimization of Tambjamines Active against Multiple Stages of Malaria Parasites” (J Med Chem, 2025).
